Reference: ChEMBL document CHEMBL4190226, “Designing novel inhibitors against histone acetyltransferase (HAT: GCN5) of Plasmodium falciparum” (Eur J Med Chem, 2017)
Activity calls are given as the source filed them. The calls are words filed in the database; no cut-off is given here.

Target: Histone acetyltransferase GCN5 (Plasmodium falciparum (isolate 3D7)) (UniProt Q8IB67)
Experiment: Inhibition of GCN5 in Plasmodium falciparum 3D7 assessed as reduction in H3K9 acetylation at 25 uM incubated for 15 mins measured by SDS-PAGE analysis

Histone acetyltransferase GCN5 (Plasmodium falciparum (isolate 3D7)), sequence (Q8IB67 as listed by the source): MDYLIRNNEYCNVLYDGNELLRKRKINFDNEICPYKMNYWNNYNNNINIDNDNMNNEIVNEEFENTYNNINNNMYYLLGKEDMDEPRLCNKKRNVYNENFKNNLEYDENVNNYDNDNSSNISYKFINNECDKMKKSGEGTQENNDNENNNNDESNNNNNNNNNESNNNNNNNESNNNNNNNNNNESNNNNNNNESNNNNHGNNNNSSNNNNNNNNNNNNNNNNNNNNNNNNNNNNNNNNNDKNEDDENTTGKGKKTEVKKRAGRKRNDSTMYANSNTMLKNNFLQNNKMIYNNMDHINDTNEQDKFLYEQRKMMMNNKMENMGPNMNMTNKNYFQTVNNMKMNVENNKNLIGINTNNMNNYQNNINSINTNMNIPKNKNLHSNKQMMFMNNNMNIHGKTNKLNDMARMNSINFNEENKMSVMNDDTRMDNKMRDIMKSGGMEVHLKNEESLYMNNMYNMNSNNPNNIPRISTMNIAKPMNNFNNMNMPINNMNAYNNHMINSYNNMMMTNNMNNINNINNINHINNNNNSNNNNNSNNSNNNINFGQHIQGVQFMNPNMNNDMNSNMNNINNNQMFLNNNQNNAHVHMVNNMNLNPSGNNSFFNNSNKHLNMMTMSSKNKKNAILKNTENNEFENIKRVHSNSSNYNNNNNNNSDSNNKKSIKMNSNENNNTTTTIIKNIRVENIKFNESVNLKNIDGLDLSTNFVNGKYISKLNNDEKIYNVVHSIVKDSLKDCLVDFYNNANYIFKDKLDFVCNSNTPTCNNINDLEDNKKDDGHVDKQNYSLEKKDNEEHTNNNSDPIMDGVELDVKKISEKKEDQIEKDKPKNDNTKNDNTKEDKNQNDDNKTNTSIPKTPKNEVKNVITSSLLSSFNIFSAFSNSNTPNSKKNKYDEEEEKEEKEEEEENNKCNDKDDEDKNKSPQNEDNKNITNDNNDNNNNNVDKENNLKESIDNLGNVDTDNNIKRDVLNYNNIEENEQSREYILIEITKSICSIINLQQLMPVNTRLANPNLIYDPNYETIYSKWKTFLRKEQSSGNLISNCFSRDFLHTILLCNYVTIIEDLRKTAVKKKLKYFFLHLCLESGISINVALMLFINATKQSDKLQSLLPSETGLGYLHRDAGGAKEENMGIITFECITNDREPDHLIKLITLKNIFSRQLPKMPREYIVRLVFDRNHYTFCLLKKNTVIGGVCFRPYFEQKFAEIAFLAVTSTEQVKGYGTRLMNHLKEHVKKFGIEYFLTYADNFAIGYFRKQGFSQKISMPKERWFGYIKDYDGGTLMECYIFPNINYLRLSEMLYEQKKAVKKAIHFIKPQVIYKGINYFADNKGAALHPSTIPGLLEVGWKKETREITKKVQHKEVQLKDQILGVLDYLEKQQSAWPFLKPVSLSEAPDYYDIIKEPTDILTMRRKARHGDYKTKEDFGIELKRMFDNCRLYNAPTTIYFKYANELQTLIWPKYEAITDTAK

inhibition: Active
Compound: CCCCCCCCCCCC1=C(O)C(=O)C=C(O)C1=O
